Experimental data as given in patent US20160297851A1, “BROAD SPECTRUM […]” (priority 2012, published 2016).
Values after ≈ are worked out from the molar mass of the structure shown. Like-named read-outs stand apart in the source and are kept apart here.

Assays:
[1] = tested on: wild type S. epidermidis RP62A; assay: microbe, parasite or virus in culture; format: cell-based, Staphylococcus epidermidis; settings: for MIC: Sensitive strain (SPase without the resistance-conferring Pro)
[2] = biological target: P84S variant of truncated E. coli SPase (Escherichia coli, UniProt P00803, P84S); assay: Equilibrium binding, arylomycin fluorescence; settings: micelles; average of three independent experiments
Bacteroides fragilis = assay: microbe, parasite or virus in culture; format: cell-based
[3] = tested on: Rhodococcus equi ATCC 6939; assay: microbe, parasite or virus in culture; format: cell-based; settings: Rhodococcus (subgen. Prescottella) equi, ATCC6939
Helicobacter pylori SS1 = assay: microbe, parasite or virus in culture; format: cell-based; settings: amount for a 1000-fold decrease in viable cells
[4] = tested on: E. coli strains harboring the indicated amino acid at SPase residue 84; assay: microbe, parasite or virus in culture; format: cell-based; settings: Escherichia coli
S. aureus COL = assay: microbe, parasite or virus in culture; format: cell-based; settings: Staphylococcus aureus
Prevotella copris = assay: microbe, parasite or virus in culture; format: cell-based
Yersinia pestis Kim+6 = assay: microbe, parasite or virus in culture; format: cell-based
[5] = tested on: Lactobacillus plantarum ATCC 8014; assay: microbe, parasite or virus in culture; format: cell-based; settings: Lactiplantibacillus plantarum, ATCC8014
[6] = tested on: Lactobacillus acidophilus ATCC 4356; assay: microbe, parasite or virus in culture; format: cell-based; settings: ATCC4356
Enterococcus faecalis = assay: microbe, parasite or virus in culture; format: cell-based
Lactococcus lactis = assay: microbe, parasite or virus in culture; format: cell-based; settings: several values = different isolates/subspecies
[7] = tested on: Corynebacterium glutamicum DSM 44475; assay: microbe, parasite or virus in culture; format: cell-based; settings: DSM44475
[8] = tested on: Streptococcus agalactiae COH-1; assay: microbe, parasite or virus in culture; format: cell-based; settings: Streptococcus agalactiae, COH1
[9] = tested on: S. epidermidis PAS9002 (SPase S31P); format: cell-based, Staphylococcus epidermidis; settings: Ser to Pro mutation at position 31 of SpsIB
Bacillus subtilis 168 = assay: microbe, parasite or virus in culture; format: cell-based
Clostridium perfringens = assay: microbe, parasite or virus in culture; format: cell-based
Rhodococcus erythropolis = assay: microbe, parasite or virus in culture; format: cell-based
[10] = tested on: lepB(P29S) S. aureus 8325; assay: microbe, parasite or virus in culture; format: cell-based, Staphylococcus aureus; settings: Table 3, P3 position derivatives; unit not given
Clostridium difficile = assay: microbe, parasite or virus in culture; format: cell-based; settings: Clostridioides difficile
[11] = tested on: Streptococcus pyogenes M1-5448; assay: microbe, parasite or virus in culture; format: cell-based
[12] = tested on: wild type P. aeruginosa PAO1; assay: microbe, parasite or virus in culture; format: cell-based, Pseudomonas aeruginosa
Chlamydia trachomatis = assay: microbe, parasite or virus in culture; format: cell-based; settings: eradication from human HeLa 229 cells, 24 hours
[13] = biological target: truncated wild type E. coli SPase (Escherichia coli, UniProt P00803); assay: Equilibrium binding, arylomycin fluorescence; settings: micelles; average of three independent experiments
[14] = tested on: Corynebacterium efficiens DSM 44549; assay: microbe, parasite or virus in culture; format: cell-based
S. aureus Rosenbach 328 = assay: microbe, parasite or virus in culture; format: cell-based; settings: Staphylococcus aureus; MRSA strain
[15] = tested on: spsB(S29P) S. epidermidis RP62A; assay: microbe, parasite or virus in culture; format: cell-based, Staphylococcus epidermidis
[16] = tested on: Rhodococcus opacus DSM 1069; assay: microbe, parasite or virus in culture; format: cell-based
wild type E. coli MG1655 = assay: microbe, parasite or virus in culture; format: cell-based, Escherichia coli
[17] = tested on: lepB(P84L) E. coli MG1655; assay: microbe, parasite or virus in culture; format: cell-based, Escherichia coli; settings: Table 3, P3 position derivatives; unit not given
[18] = biological target: full-length P29S mutant S. aureus SPase (Ser-variant) (Staphylococcus aureus, UniProt P0A070, P29S); assay: Equilibrium binding, arylomycin fluorescence
[19] = tested on: Staphylococcus haemolyticus; assay: microbe, parasite or virus in culture; format: cell-based
[20] = tested on: lepB(P84L) P. aeruginosa PAO1; assay: microbe, parasite or virus in culture; format: cell-based, Pseudomonas aeruginosa
Staphylococcus aureus = format: cell-based; settings: several values = heterogeneity within different strains
[21] = tested on: Klebsiella pneumoniae ATCC 43816; assay: microbe, parasite or virus in culture; format: cell-based; settings: ATCC43816
[22] = Staphylococcus epidermidis, read-out: MIC
[23] = Table 3, P3 position derivatives, unit not given

## CCCCCCCCCCCCCCCC(=O)N(C)[C@H](CO)C(=O)N[C@H](C)C(=O)NCC(=O)N(C)[C@@H]1C(=O)N[C@@H](C)C(=O)N[C@H](C(=O)O)Cc2ccc(O)c(c2)-c2cc1ccc2O [Arylomycin C16, arylomycin C16]
[1]
  MIC: 0.25 µg/mL (≈ 0.284 µM)
[1]; listed as arylomycin C16
  MIC: 0.25 µg/mL (≈ 0.284 µM)
[1]; [22]
  MIC: 0.5 µg/mL (≈ 0.567 µM)
[1]; [23]
  minimal inhibitory concentration (MIC): 0.25
[2]
  Kd: 39 ± 15 nM
Bacteroides fragilis
  MIC: > 16 µg/mL
[3]
  MIC: 16 µg/mL (≈ 18.2 µM)
Helicobacter pylori SS1; Helicobacter pylori, SS1, read-out: MIC
  MIC: 4 µg/mL (≈ 4.54 µM)
Helicobacter pylori SS1
  MIC: 4 µg/mL (≈ 4.54 µM)
[4]; 'Phe or His' variant (temperature sensitive)
  MIC: 2 µg/mL (≈ 2.27 µM)
[4]; His variant (temperature sensitive)
  MIC: 4 µg/mL (≈ 4.54 µM)
[4]; Pro at SPase residue 84
  MIC: > 256 µg/mL
[4]; all of the other amino acids at residue 84
  MIC: ≤ 16 µg/mL
S. aureus COL
  MIC: 12 µg/mL (≈ 13.6 µM)
Prevotella copris
  MIC: > 16 µg/mL
Yersinia pestis Kim+6
  MIC: 4 µg/mL (≈ 4.54 µM)
[5]
  MIC: > 128 µg/mL
[6]
  MIC: > 128 µg/mL
Enterococcus faecalis
  MIC: > 64 µg/mL
Lactococcus lactis
  MIC: 16 µg/mL (≈ 18.2 µM)
[7]
  MIC: 2 µg/mL (≈ 2.27 µM)
[8]
  MIC: > 128 µg/mL
[9]
  fold elevated MIC compared to the wild type strain: greater than 256 fold
Bacillus subtilis 168
  MIC: > 128 µg/mL
Clostridium perfringens
  MIC: > 16 µg/mL
Rhodococcus erythropolis
  MIC: 16 µg/mL (≈ 18.2 µM)
[10]
  minimal inhibitory concentration (MIC): 4
Clostridium difficile
  MIC: > 16 µg/mL
[11]
  MIC: 16 µg/mL (≈ 18.2 µM)
[11]; Streptococcus pyogenes, M15448, read-out: MIC
  MIC: 8 µg/mL (≈ 9.08 µM)
[11]; listed as arylomycin A-C16
  MIC: 8 µg/mL (≈ 9.08 µM)
[12]; Pseudomonas aeruginosa, PAO1, Resistant strain (wild type), read-out: MIC
  MIC: > 64 µg/mL
[12]; Resistant strain (wild type)
  MIC: >128 µg/mL
Chlamydia trachomatis
  MIC: 6 µg/mL (≈ 6.81 µM)
[13]
  Kd: 979 ± 69 nM
[14]
  MIC: 16 µg/mL (≈ 18.2 µM)
S. aureus Rosenbach 328
  MIC: 25 µg/mL (≈ 28.4 µM)
[15]; Ser to Pro mutation at position 29 of SpsIB
  fold elevated MIC compared to the wild type strain: 32 fold
[15]; [22]
  MIC: 8 µg/mL (≈ 9.08 µM)
[16]
  MIC: 2 µg/mL (≈ 2.27 µM)
[16]; Rhodococcus opacus, DSM1069, read-out: MIC
  MIC: 1 µg/mL (≈ 1.13 µM)
Wild type E. coli MG1655; Escherichia coli, MG1655, Resistant strain (wild type), read-out: MIC
  MIC: > 64 µg/mL
Wild type E. coli MG1655; Resistant strain (wild type)
  MIC: >128 µg/mL
[17]
  minimal inhibitory concentration (MIC): 2
[18]
  Kd: 130 ± 53 nM
[19]
  MIC: 2 µg/mL (≈ 2.27 µM)
[20]; Pseudomonas aeruginosa, PAO1, Sensitive (genetically sensitized) strain, read-out: MIC
  MIC: 8 µg/mL
[20]; [23]
  minimal inhibitory concentration (MIC): 4
Staphylococcus aureus
  MIC: 16 to 32 µg/mL
[21]
  MIC: > 128 µg/mL
